Test results as given in patent US20210196731A1, “COMPOSITIONS AND METHODS FOR TREATING OCULAR INFLAMMATION AND OCULAR SCARRING” (priority 2018, published 2021).

How the values were obtained:
Format in all cases: cell-based, human
[1] = system: αSMA; experiment: Western blot of HTCF protein lysate, αSMA
Protocol: (§1) Cells were lysed in lysis buffer (PhosphoSafe Extraction Reagent, Novagen) containing a protease inhibitor cocktail (P2714, Sigma-Aldrich). Crude protein lysate was quantified using a Pierce BCA protein assay kit (ThermoFisher, Mississauga, ON) and 10 ug from each sample was resolved using a Novex WedgeWell 4-20% tris-glycine gel (Invitrogen). Using an iBlot Gel Transfer Device (IB1001, Invitrogen), the separated protein was transferred to a nitrocellulose membrane (1B301001, iBlot Transfer Stack, Invitrogen) which was then blocked with 5% (w/v) bovine serum albumin (Sigma-Aldrich) in Tris buffered saline (TBST) for 1 hour at room temperature. The membranes were incubated overnight at 4° C. with primary antibody diluted in TBST containing 5% BSA (w/vol). […] Visualization was accomplished by applying WesternBright Quantum chemiluminescent reagent (Advansta, Inc.), with GAPDH used as a protein loading control. Imaging and relative densiometric quantification was accomplished using a ChemiDoc MP System (Bio-Rad Laboratories, Inc.) connected to Image Lab (Version 6, Bio-Rad Laboratories, Inc.).

[2] = system: HTCFs; experiment: Lipid Mediator Secretion Assay II (ASA or APHS with and without gentamicin, LC-MS/MS); conditions: for CytoM1+TGFb1 induced COX2 activity, as measured through PGE2 and kPGF1a secretion / secretion of acetylated-COX2 products, as measured through 5-HETE and 15-HETE secretion: ASA 500 or 1000 μg/ml, with or without gentamicin 250 or 500 μg/ml, 6-48 hrs; for secretion of acetylated-COX2 products, as measured through 5-HETE and 15-HETE secretion: CytoM1+TGFb1
Protocol: To this end, as before, multiple primary HTCF cell lines were cultured in DMEM w/10% FBS in 6-well culture plates, incubated at 37° C. and 5% CO2, until 90% confluent. The culture media was removed, wells washed with PBS, and then fresh DMEM w/0% FBS was added. After 24 hrs of serum starvation, fresh DMEM w/0% FBS was added, this time containing a physiologically relevant inflammation/wound healing induction mixture (1 ng/ml each of: IL-1b, TNFa, IFNγ, TGFb). After 12 hrs incubation, the induction media was removed, the wells were washed with PBS and fresh DMEM w/0% FBS was added containing one of ten experimental treatments for an incubation period of 48 hrs: 1) non-induced control (NIC: received DMEM w/0% FBS instead of the induction media), and 2) CytoM1+TGFB1 (DMEM w/0% FBS and 1 ng/ml each of: IL-1b, TNFa, IFNγ, TGFb), and 3) CytoM1/TGFB1/Gent250 (DMEM w/0% FBS, 1 ng/ml each of TGFB1, TGFB2, VEGF, CCN2 and 250 μg/ml gentamicin), and 4) CytoM1/TGFB1/Gent500 (DMEM w/0% FBS, 1 ng/ml each of TGFB1, TGFB2, VEGF, CCN2 and 500 μg/ml gentamicin), and 5) CytoM1/TGFB1/ASA500 (DMEM w/0% FBS, 1 ng/ml each of TGFB1, TGFB2, VEGF, CCN2, and 500 μg/ml ASA), and 6) CytoM1/TGFB1/ASA500/Gent250 (DMEM w/0% FBS, 1 ng/ml each of TGFB1, TGFB2, VEGF, CCN2, 500 μg/ml ASA and 250 μg/ml gentamicin), and 7) CytoM1/TGFB1/ASA1000 (DMEM w/0% FBS, 1 ng/ml each of TGFB1, TGFB2, VEGF, CCN2 and 1000 μg/ml ASA), and 8) CytoM1/TGFB1/ASA1000/Gent500 (DMEM w/0% FBS, 1 ng/ml each of TGFB1, TGFB2, VEGF, CCN2, 1000 μg/ml ASA, and 500 μg/ml gentamicin), and 9) CytoM1/TGFB1/APHS12 (DMEM w/0% FBS, 1 ng/ml each of TGFB1, TGFB2, VEGF, CCN2 and 12 μg/ml o-(acetoxyphenyl)hept-2-ynyl sulfide (APHS), and 10) CytoM1/TGFB1/APHS12/Gent250 (DMEM w/0% FBS, 1 ng/ml each of TGFB1, TGFB2, VEGF, CCN2, 12 μg/ml o-(acetoxyphenyl)hept-2-ynyl sulfide (APHS) and 250 μg/ml gentamicin). At 6, 12, 24 and 48 hrs after addition of the experimental treatments, 250 ul of supernatant was removed from each well, replaced with 250 ul of fresh DMEM w/0% FBS, and stored at −80° C. for subsequent LC-MS/MS analysis. After 48 hrs, the wells were washed with ice cold PBS three times and total cellular protein from the HTCF monolayer was collected for quantification and subsequent western blot analyses. The absolute quantity of protein within each culture well's HTCF monolayer was used as a means to standardize the relative secretion of lipid mediators by HTCFs into the culture well's supernatant.
This is a well-established method to determine the relative activity of cyclooxygenase, acetyl-COX2 and lipoxygenase biosynthetic pathways. In brief, the ratios of the integrated areas of the chromatographic peaks corresponding to each analyte and the integrated areas of the peaks corresponding to each analyte's internal standard (with known absolute quantity) are used to determine the relative quantity of each analyte in a given sample. After supernatant sample collection, 250 ul of methanol containing 100 μg of each deuterated internal standard was added. Samples were then vigorously vortexed and centrifuged at 10,000 g for 10 min before loading onto solid-phase extraction cartridges (Strata-X 33 um Polymeric Reversed Phase, 10 mg, Phenomenex 8B-S100-AAK), that were previously activated with 2 ml methanol and rinsed with 2 ml water. […] After washing with 5 ml water, extracts were eluted with 1 ml methanol. Solvent was then evaporated under vacuum in a SpeedVac centrifuge, and the extract was resuspended in 100 ul acetonitrile/water 60:40 (v/v). An aliquot of 20 ul was injected into the LC-MS/MS system for analysis. […] A Sciex Triple Quad 6500+ mass spectrometer with multiple reaction monitoring was used in negative ion mode. The chromatographic profile of the ion count for each m/z transition was monitored, and the area under the peaks (ion intensity vs elution time) was integrated using commercial software (MultiQuant, Sciex).

[3] = system: SMAD2/3; experiment: Western blot of HTCF protein lysate, SMAD2/3; conditions: ASA 500 or 1000 μg/ml, APHS 12 μg/ml, 48 hrs
Protocol: as §1

[4] = system: pSMAD2/3; experiment: Western blot of HTCF protein lysate, pSMAD2/3; conditions: ASA 500 or 1000 μg/ml, APHS 12 μg/ml, 48 hrs; for ratio of pSMAD2/3 to tSMAD2/3 (proportion of active to total SMAD2/3): AHGFs; for AHGF-induced levels of pSMAD2/3: with or without gentamicin 250 or 500 μg/ml
Protocol: as §1

[5] = ASA 500 or 1000 μg/ml, APHS 12 μg/ml, with or without gentamicin 250 or 500 μg/ml, 48 hrs (FIG. 17B)

| Compound | AHGF-induced expression of αSMA [1, 5] | net enzymatic activity, acetylated-COX2 vs COX2 production of lipid mediators ([2]; APHS 12 μg/ml, alone or with gentamicin 250 μg/ml, vs inf. cytokines control) | CytoM1+TGFb1 induced COX2 activity, as measured through PGE2 and kPGF1a secretion ([2]; APHS 12 μg/ml) | secretion of acetylated-COX2 products, as measured through 5-HETE and 15-HETE secretion ([2]; APHS 12 μg/ml) | AHGF-induced expression of SMAD2/3 [3] | ratio of pSMAD2/3 to tSMAD2/3 (proportion of active to total SMAD2/3) [4] | AHGF-induced levels of pSMAD2/3 [4] | AHGF-induced expression of αSMA ([1]; ASA 100, 400, 1600 μg/ml, 48 hrs (FIG. 16)) | relative amount of COX2 products relative to inf. cytokines control ([2]; ASA 500 μg/ml) | balance of enzymatic activity (COX2:acetyl-COX2 ratio) ([2]; ASA 500 μg/ml, alone or with gentamicin 250) | relative amount of COX2 products relative to inf. cytokines control ([2]; ASA 1000 μg/ml) | balance of enzymatic activity (COX2:acetyl-COX2 ratio) ([2]; ASA 1000 μg/ml, alone or with gentamicin 500) |
| --- | --- | --- | --- | --- | --- | --- | --- | --- | --- | --- | --- | --- |
| CCCCC#CCSc1ccccc1OC(C)=O [APHS, o-(acetoxyphenyl)hept-2-ynyl sulfide] | significantly reduced | significantly shift the net enzymatic activity toward net acetylated-COX2 production of lipid mediators | significantly inhibit COX2 activity | profoundly and significantly increased the secretion of acetylated-COX2 products relative to all other treatment groups | significantly reduced | significantly reduce the proportion of active to total SMAD2/3 from AHGF-induced levels | significantly reduced |  |  |  |  |  |
| CC(=O)Oc1ccccc1C(=O)O [ASA, acetylsalicylic acid] | significantly reduced |  | significantly inhibit CytoM1+TGFb1 induced COX2 activity | either no effect or a significantly smaller effect on acetylated-COX2 products relative to the ASA/Gent experimental group | significantly reduced | significantly reduce the proportion of active to total SMAD2/3 from AHGF-induced levels | significantly reduced | significantly impaired the AHGF-induced expression of αSMA | significantly reduce the relative amount of COX2 products relative to the inf. cytokines control group | positive values for the COX2:acetyl-COX2 ratio at all timepoints | significantly reduce the relative amount of COX2 products relative to the inf. cytokines control group | unable to significantly shift the balance of enzymatic activity toward net actyl-COX2 production relative to COX2 production |
